Source: patent publication US9199988B2, “Dihydroquinazolinone analogues” (Boehringer Ingelheim International GmbH, priority 2013, dated 2015)

Biological target: T1, first (BRD4-BD1) or the second (BRD4-BD2) bromodomain of BRD4 (Homo sapiens, UniProt O60885)
T1 construct: fused on or other part: GST tag (N-terminal fusion, used for capture on the glutathione acceptor beads)
Assay: BRD4-H4 tetraacetylated peptide inhibition AlphaScreen
Assay type: binding
Settings: inhibition of interaction of GST-BRD4 bromodomain with biotinylated tetraacetylated histone H4 peptide; table does not say whether BD1 or BD2
Experimental: BRD4-H4 tetraacetylated peptide inhibition AlphaScreen
Compounds are diluted in serial dilution 1:5 in assay buffer from 10 mM stock in DMSO (100 μM start concentration) in white OptiPlate-384 (PerkinElmer). A mix consisting of 15 nM GST-BRD4-BD1 protein (aa 44-168) or 150 nM GST-BRD4-BD2 (aa 333-460) and 15 nM biotinylated Acetyl-Histone H4 (LysS, 8, 12, 16) peptide is prepared in assay buffer (50 mM HEPES pH=7.4; 25 mM NaCl; 0.05% Tween 20; 0.1% bovine serum albumin (BSA); 10 mM dithiothreitol (DTT)). 6 μl of the mix is added to the compound dilutions. Subsequently, 6 μl of premixed AlphaLISA Glutathione Acceptor Beads and AlphaScreen Streptavidin Donor Beads from PerkinElmer (in assay buffer at a concentration of 10 μg/ml each) are added and the samples are incubated for 30 min at RT in the dark (shaking 300 rpm). Afterwards, the signal is measured in a PerkinElmer Envision HTS Multilabel Reader using the AlphaScreen protocol from PerkinElmer. Each plate contains negative controls where biotinylated Acetyl-Histone H4 peptide and GST-BRD4-BD1 or GST-BRD4-BD2 are left out and replaced by assay buffer. Negative control values are entered as low basis value when using the software GraphPad Prism for calculations. Furthermore, a positive control (probe molecule JQ1+ with protein/peptide mix) is pipetted. Determination of IC50 values are carried out using GraphPad Prism 3.03 software (or updates thereof).

Row | Compound | IC50
1 | Cc1noc(C)c1-c1ccc2c(c1)C(c1ccccc1)N(Cc1ccccc1)C(=O)N2 (stereo not shown) [Example 6, 3-Benzyl-6-(3,5-dimethylisoxazol-4-yl)-4-phenyl-1,4-dihydroquinazolin-2-one] | 0.225 µM
2 | Cc1noc(C)c1-c1ccc2c(c1)C(c1ccc(Cl)cc1)N(C)C(=O)N2 (stereo not shown) [Example 7, 4-(4-Chloro-phenyl)-6-(3,5-dimethyl-isoxazol-4-yl)-3-methyl-3,4-dihydro-1H-quinazolin-2-one] | 0.105 µM
3 | Cc1noc(C)c1-c1ccc2c(c1)C(c1ccccc1)OC(=O)N2 (stereo not shown) [Example 10, 6-(3,5-Dimethyl-isoxazol-4-yl)-4-phenyl-1,4-dihydro-benzo[d][1,3]oxazin-2-one] | 0.423 µM
4 | COc1ccc(CN2C(=O)Oc3ccc(-c4c(C)noc4C)cc3C2c2ccccc2)cc1 (stereo not shown) [Example 12, 6-(3,5-Dimethyl-isoxazol-4-yl)-3-(4-methoxy-benzyl)-4-phenyl-3,4-dihydro-benzo[e][1,3]oxazin-2-one] | 0.241 µM
5 | Cc1noc(C)c1-c1ccc2c(c1)C(c1ccccn1)N(C)C(=O)N2 (stereo not shown) [Example 13, 6-(3,5-Dimethyl-isoxazol-4-yl)-3-methyl-4-pyridin-2-yl-3,4-dihydro-1H-quinazolin-2-one] | 0.119 µM
6 | Cc1noc(C)c1-c1cc2c(cn1)NC(=O)N(C)C2c1ccccc1 (stereo not shown) [Example 15, 6-(3,5-Dimethyl-isoxazol-4-yl)-3-methyl-4-phenyl-3,4-dihydro-1H-pyrido[3,4-d]pyrimidin-2-one] | 0.837 µM
7 | Cc1noc(C)c1-c1cc2c(cn1)NC(=O)N(C)[C@H]2c1ccccc1 [Example 16, (S) 6-(3,5-Dimethyl-isoxazol-4-yl)-3-methyl-4-phenyl-3,4-dihydro-1H-pyrido[3,4-d]pyrimidin-2-one] | 0.166 µM
8 | Cc1noc(C)c1-c1ccc2c(n1)C(c1ccccc1)N(C)C(=O)N2 (stereo not shown) [Example 17, 6-(3,5-Dimethyl-isoxazol-4-yl)-3-methyl-4-phenyl-3,4-dihydro-1H-pyrido[3,2-d]pyrimidin-2-one] | 0.252 µM
9 | COc1noc(C)c1-c1ccc2c(c1)C(c1ccccc1)N(C)C(=O)N2 (stereo not shown) [Example 20, 6-(3-Methoxy-5-methyl-isoxazol-4-yl)-3-methyl-4-phenyl-3,4-dihydro-1H-quinazolin-2-one] | 0.213 µM
10 | COc1c(-c2c(C)noc2C)ccc2c1C(c1ccccc1)N(C)C(=O)N2 (stereo not shown) [Example 21, 6-(3,5-Dimethyl-isoxazol-4-yl)-5-methoxy-3-methyl-4-phenyl-3,4-dihydro-1H-quinazolin-2-one] | 0.825 µM

Stronger by IC50, values ahead:

Row | IC50 | Compound
11 | 0.076 µM | Cc1noc(C)c1-c1cnc2c(c1)C(c1ccccc1)N(C)C(=O)N2 (stereo not shown) [Example 18, 6-(3,5-Dimethyl-isoxazol-4-yl)-3-methyl-4-phenyl-3,4-dihydro-1H-pyrido[2,3-]pyrimidin-2-one]
12 | 0.075 µM | Cc1noc(C)c1-c1ccc2c(c1)C(c1ccccc1)N(C)C(=O)O2 (stereo not shown) [Example 8, 6-(3,5-Dimethyl-isoxazol-4-yl)-3-methyl-4-phenyl-3,4-dihydro-benzo[e][1,3]oxazin-2-one]
13 | 0.068 µM | Cc1noc(C)c1-c1ccc2c(c1)[C@H](c1ccccc1)N(C)C(=O)O2 [Example 9, (S) 6-(3,5-Dimethyl-isoxazol-4-yl)-3-methyl-4-phenyl-3,4-dihydro-benzo[e][1,3]oxazin-2-one]
14 | 0.066 µM | Cc1noc(C)c1-c1ccc2c(c1)C(c1ccccc1)N(C)C(=O)N2C (stereo not shown) [Example 3, 6-(3,5-Dimethyl-isoxazol-4-yl)-1,3-dimethyl-4-phenyl-3,4-dihydro-1H-quinazolin-2-one]
15 | 0.044 µM | Cc1noc(C)c1-c1ccc2c(c1)C(c1ccccc1)N(C)C(=O)N2 (stereo not shown) [Example 1, 6-(3,5-Dimethyl-isoxazol-4-yl)-3-methyl-4-phenyl-3,4-dihydro-1H-quinazolin-2-one]
16 | 0.038 µM | Cc1noc(C)c1-c1ccc2c(c1)C(c1ccccc1)N(CC1CCOCC1)C(=O)N2 (stereo not shown) [Example 5, 6-(3,5-Dimethylisoxazol-4-yl)-4-phenyl-3-(tetrahydropyran-4-ylmethyl)-1,4-dihydroquinazolin-2-one]
17 | 0.031 µM | Cc1noc(C)c1-c1ccc2c(c1)C(c1ccccc1)N(CC1CCN(C)CC1)C(=O)N2 (stereo not shown) [Example 4, 6-(3,5-Dimethyl-isoxazol-4-yl)-3-(1-methyl-piperidin-4-ylmethyl)-4-phenyl-3,4-dihydro-1H-quinazolin-2-one]
18 | 0.031 µM | Cc1noc(C)c1-c1ccc2c(c1)C(C)(c1ccccc1)N(C)C(=O)N2 (stereo not shown) [Example 19, 6-(3,5-Dimethyl-isoxazol-4-yl)-3,4-dimethyl-4-phenyl-3,4-dihydro-1H-quinazolin-2-one]
19 | 0.027 µM | Cc1noc(C)c1-c1ccc2c(c1)[C@H](c1ccccc1)N(C)C(=O)N2 [Example 2, (S) 6-(3,5-Dimethyl-isoxazol-4-yl)-3-methyl-4-phenyl-3,4-dihydro-1H-quinazolin-2-one]
